For 29 compounds, IC50 results are on record in patent publication US20240158385A1, “NOVEL COMPOUNDS” (Cerevance, Inc., priority 2021, published 2024).

The target in the assay is T1, human KCNK13 (Homo sapiens, UniProt Q9HB14).
T1 construct: expressed in transfected cells
T1 sequence (Q9HB14 1-408): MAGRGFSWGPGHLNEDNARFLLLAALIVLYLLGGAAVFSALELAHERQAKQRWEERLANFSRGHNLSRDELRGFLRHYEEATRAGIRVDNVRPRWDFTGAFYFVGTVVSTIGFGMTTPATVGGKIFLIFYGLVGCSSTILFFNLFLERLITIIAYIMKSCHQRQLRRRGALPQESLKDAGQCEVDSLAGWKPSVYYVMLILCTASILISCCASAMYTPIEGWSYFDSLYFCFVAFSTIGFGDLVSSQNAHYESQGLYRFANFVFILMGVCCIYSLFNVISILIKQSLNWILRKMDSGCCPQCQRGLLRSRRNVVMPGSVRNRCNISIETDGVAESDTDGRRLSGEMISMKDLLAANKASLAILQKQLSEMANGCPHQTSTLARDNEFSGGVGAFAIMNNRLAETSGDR
The assay can be described thus: KCNK13 antagonist activity, thallium (Tl+) flux FLIPR assay. It counts as cell-based. The note with it: HEK 293 cells stably expressing human KCNK13; Tl+ sensitive dye, FLIPR; compounds 15 minutes prior to thallium sulfate; 10 point half log curves from 10 PM; read-out: hKCNK13 IC50. As to the method: KCNK13 antagonist activity was determined by measuring changes in intracellular Thallium (Tl^+) concentrations using a Tl^+ sensitive fluorescent dye. The changes in fluorescent signal were monitored by Fluorescent Imaging Plate Reader (FLIPR™) technology available from Molecular Devices, LLC, US. KCNK13 mediated increases in intracellular Tl+concentration were readily detected by addition of a thallium sulfate stimulus. 24 hours prior to the assay, human embryonic kidney 293 cells (HEK 293 cells) stably expressing human KCNK13 were seeded in cell culture medium in PDL coated black, clear-bottom 384-well plates (commercially available from Corning Inc., 356663) and grown overnight at 37° C., 5% CO2. On the day of the assay, cell culture media was removed and cells were loaded with potassium dye (commercially sold by Molecular Devices, LLC, US, R8222) for 1 hour at room temperature in the dark. Test compounds (at 10 point half log concentration response curves from […]) were added to cells for 15 minutes prior to the addition of thallium sulfate to all wells. The IC50 values were determined from ten point concentration response curves. Curves were generated using the average of two wells for each data point.
As a reminder, the IC50 is the concentration that inhibits the measured activity by half. For the compound `Cc1nonc1-c1nc2ccccc2n1Cc1ccc(C#N)nc1` [Example 37, 5-[[2-(4-methyl-1,2,5-oxadiazol-3-yl)benzimidazol-1-yl]methyl]pyridine-2-carbonitrile], the IC50 was less than 0.05 µM.
Turning to `N#Cc1ncc(Cn2c(-c3nonc3N)nc3cccc(F)c32)cn1` (single isomer, unassigned) [Example 25, 5-[[2-(4-amino-1,2,5-oxadiazol-3-yl)-7-fluoro-benzimidazol-1-yl]methyl]pyrimidine-2-carbonitrile], the IC50 was less than 0.05 µM.
As to `Cc1nonc1-c1nc2ccc(F)c(F)c2n1Cc1cccnn1` (single isomer, unassigned) [Example 170, 3-(6,7-difluoro-1-(pyridazin-3-ylmethyl)-benzimidazol-2-yl)-4-methyl-1,2,5-oxadiazole], the IC50 is less than 0.1 µM.
In the case of `Cc1nonc1-c1nc2cccc(N)c2n1Cc1cccnc1` [Example 72, 2-(4-methyl-1,2,5-oxadiazol-3-yl)-3-(pyridin-3-ylmethyl)benzimidazol-4-amine], the half-maximal inhibitory concentration (IC50) was less than 0.5 µM.
For the compound `Cc1nonc1-c1nc2ccc(F)c(F)c2n1Cc1cccnc1` [Example 56, 3-[6,7-difluoro-1-(pyridin-3-ylmethyl)benzimidazol-2-yl]-4-methyl-1,2,5-oxadiazole], the IC50 was less than 0.1 µM.
Next, `Nc1nonc1-c1nc2cccc(F)c2n1Cc1cccnn1` [Example 6, 4-[7-fluoro-1-(pyridazin-3-ylmethyl)benzimidazol-2-yl]-1,2,5-oxadiazol-3-amine]: less than 0.1 µM.
Next, `Cc1ccc(Cn2c(-c3nonc3C)nc3ccccc32)cn1` [Example 63, 3-methyl-4-[1-[(6-methylpyridin-3-yl)methyl]benzimidazol-2-yl]-1,2,5-oxadiazole]: less than 0.2 µM.
`Cc1nonc1-c1nc2c(F)cccc2n1Cc1ccc(S(C)(=O)=O)nc1` (single isomer, unassigned) [Example 138, 3-(4-fluoro-1-((6-(methylsulfonyl)pyridin-3-yl)methyl)-benzimidazol-2-yl)-4-methyl-1,2,5-oxadiazole]: the IC50 is less than 1 µM.
Next, `Nc1nonc1-c1nc2c(F)cc(F)cc2n1Cc1cccnn1` [Example 142, 4-(4,6-difluoro-1-(pyridazin-3-ylmethyl)-benzimidazol-2-yl)-1,2,5-oxadiazol-3-amine]: less than 0.2 µM; `Nc1nonc1-c1nc2cc(F)cc(F)c2n1Cc1cccnn1` [Example 141, 4-(5,7-difluoro-1-(pyridazin-3-ylmethyl)-benzimidazol-2-yl)-1,2,5-oxadiazol-3-amine]: less than 0.1 µM; `c1coc(-c2nc3ccccc3n2Cc2ccncc2)c1` [Example 117, 2-(furan-2-yl)-1-(pyridin-4-ylmethyl)benzimidazole]: less than 1 µM.
To `Nc1nonc1-c1nc2ccc(F)cc2n1Cc1cncnc1` (single isomer, unassigned) [Example 4, 4-[6-fluoro-1-(pyrimidin-5-ylmethyl)benzimidazol-2-yl]-1,2,5-oxadiazol-3-amine] belongs less than 0.05 µM.
To `CNc1nonc1-c1nc2cccc(F)c2n1Cc1cccnn1` [Example 178, 4-(7-fluoro-1-(pyridazin-3-ylmethyl)-benzimidazol-2-yl)-N-methyl-1,2,5-oxadiazol-3-amine] belongs less than 5 µM; to `Cc1nonc1-c1nc2ccc(F)c(F)c2n1Cc1cnc(C#N)nc1` [Example 1, 5-[[6,7-difluoro-2-(4-methyl-1,2,5-oxadiazol-3-yl)benzimidazol-1-yl]methyl]pyrimidine-2-carbonitrile], less than 0.1 µM; to `Nc1nonc1-c1nc2cccnc2n1Cc1cccnc1` [Example 59, 4-[3-(pyridin-3-ylmethyl)imidazo[4,5-b]pyridin-2-yl]-1,2,5-oxadiazol-3-amine], less than 0.2 µM.
Take `Cc1nonc1-c1nc2c(F)ccc(F)c2n1Cc1cccnc1` [Example 65, 3-[4,7-difluoro-1-(pyridin-3-ylmethyl)benzimidazol-2-yl]-4-methyl-1,2,5-oxadiazole]: the IC50 is less than 0.05 µM.
Regarding `Cc1nonc1-c1nc2ccccc2n1Cc1cc[n+]([O-])cc1` [Example 77, 3-methyl-4-[1-[(1-oxidopyridin-1-ium-4-yl)methyl]benzimidazol-2-yl]-1,2,5-oxadiazole], the IC50 is less than 1 µM.
As for `Cc1nonc1-c1nc2c(F)cccc2n1Cc1cnc(C#N)nc1` [Example 45, 5-[[4-fluoro-2-(4-methyl-1,2,5-oxadiazol-3-yl)benzimidazol-1-yl]methyl]pyrimidine-2-carbonitrile], the IC50 is less than 0.1 µM.
Turning to `Nc1nonc1-c1nc2c(F)ccc(F)c2n1Cc1cccnn1` [Example 154, 4-(4,7-difluoro-1-(pyridazin-3-ylmethyl)-benzimidazol-2-yl)-1,2,5-oxadiazol-3-amine], the IC50 was less than 0.05 µM.
As to `Cc1nonc1-c1nc2cccnc2n1Cc1ccc(C#N)nn1` [Example 18, 6-[[2-(4-methyl-1,2,5-oxadiazol-3-yl)imidazo[4,5-b]pyridin-3-yl]methyl]pyridazine-3-carbonitrile], the IC50 was less than 0.5 µM.
For the compound `Nc1nonc1-c1nc2c(F)cccc2n1Cc1ccc(C(F)(F)F)nn1` (single isomer, unassigned) [Example 167, 4-(4-fluoro-1-((6-(trifluoromethyl)pyridazin-3-yl)methyl)-benzimidazol-2-yl)-1,2,5-oxadiazol-3-amine], the IC50 is less than 1 µM.
On to `Cc1conc1-c1nc2cccc(F)c2n1Cc1cccnn1` [Example 182, 3-(7-fluoro-1-(pyridazin-3-ylmethyl)-benzimidazol-2-yl)-4-methylisoxazole], for which the IC50 was less than 0.2 µM.
In the case of `N#Cc1cnc(Cn2c(-c3nonc3N)nc3cccc(F)c32)cn1` [Example 35, 5-[[2-(4-amino-1,2,5-oxadiazol-3-yl)-7-fluoro-benzimidazol-1-yl]methyl]pyrazine-2-carbonitrile], the IC50 was less than 0.05 µM.
Turning to `Cc1nsnc1-c1nc2cccc(F)c2n1Cc1cccnc1` (single isomer, unassigned) [Example 125, 3-[7-fluoro-1-(pyridin-3-ylmethyl)benzimidazol-2-yl]-4-methyl-1,2,5-thiadiazole], the IC50 is less than 0.05 µM.
For the compound `Cc1nonc1-c1nc2cccc(F)c2n1Cc1ccc(C#N)nn1` [Example 46, 6-[[7-fluoro-2-(4-methyl-1,2,5-oxadiazol-3-yl)benzimidazol-1-yl]methyl]pyridazine-3-carbonitrile], the IC50 was less than 0.1 µM.
On to `Cc1nsnc1-c1nc2ccccc2n1Cc1cccnc1` [Example 127, 3-methyl-4-[1-(pyridin-3-ylmethyl)benzimidazol-2-yl]-1,2,5-thiadiazole], for which the IC50 is less than 0.1 µM.
To `Cc1nonc1-c1nc2c(Cl)cccc2n1Cc1ccc(C#N)nc1` (single isomer, unassigned) [Example 61, 5-[[4-chloro-2-(4-methyl-1,2,5-oxadiazol-3-yl)benzimidazol-1-yl]methyl]pyridine-2-carbonitrile] belongs less than 0.2 µM.
Consider `Nc1nonc1-c1nc2ccccc2n1Cc1ccnnc1` [Example 107, 4-[1-(pyridazin-4-ylmethyl)benzimidazol-2-yl]-1,2,5-oxadiazol-3-amine], for which the half-inhibitory concentration (IC50) is less than 0.2 µM.
As to `Cc1nonc1-c1nc2c(F)cc(F)cc2n1Cc1cccnn1` (single isomer, unassigned) [Example 147, 3-(4,6-difluoro-1-(pyridazin-3-ylmethyl)-benzimidazol-2-yl)-4-methyl-1,2,5-oxadiazole], the IC50 is less than 0.2 µM.
